Source: patent US8410140B2, “Anesthetic methods and compositions” (The Regents of the University of Michigan, priority 2009, dated 2013)

What was measured:
[1] = system: sciatic nerve block in rat; experiment: PWL and inter-paw differential (IPD), perineural versus subcutaneous dexmedetomidine in sciatic nerve block (Example 3); type: in vivo
Procedure: The relative systemic versus peripheral perineural effects of dexmedetomidine were determined by observing the PWL for the blocked and unblocked (control) paw. The effect of sensory analgesia (as measured by the PWL) to the operative paw compared with the control paw was calculated and is reported as the inter-paw differential (IPD=100*[Operative PWL−Control PWL]/Control PWL).
Data are presented as mean±SEM.

[2] = system: sciatic nerve block in rat; conditions: high-dose dexmedetomidine alone or combined with approved concentrations of bupivacaine; cited from earlier work
[3] = system: sciatic nerve block in rat; experiment: Paw withdrawal latency (PWL) to a heat stimulus after perineural sciatic nerve block, dexmedetomidine dose response (Example 2); type: in vivo; conditions: operative paw, ropivacaine 0.5%, heat cut-off 15 seconds, n = 10
Procedure: Commercially available 0.75% ropivacaine solution was mixed with preservative free normal saline or dexmedetomidine to make final solutions. The control group received 0.5% ropivacaine alone. In the experimental groups, ropivacaine was mixed with dexmedetomidine to make solutions based on the individual rat's weight 24 hours prior to experimental testing. […] The pH of ropivacaine (5.69±0.05) was used as the standard to which all solutions were maintained.
Fifty male Sprague Dawley rats (caesarean-derived Sprague-Dawley) weighing 250-350 g were purchased from Charles River Laboratories (Wilmington, Mass.). Rats without any signs of neurobehavioral impairment were maintained for one week in 12:12 light-dark cycles with lights on from 6 a.m. to 6 p.m. For the three days prior to surgery and neurobehavioral monitoring, rats were conditioned to the paw withdrawal chambers for one hour per day. Each rat was placed in the same position of the six-chamber container during the conditioning and neurobehavioral testing. On each of the three days prior to testing, both paws of the rat were exposed to the heat stimulus as a portion of the conditioning process. The day before surgery and testing, five PWL baseline measurements were obtained on both the operative and control paws. The mean value of the five measures was recorded as the rat's baseline value.
The IITC Life Sciences Inc. Plantar Analgesia Meter (Series 8 Model 336T, IITC Life Science Inc., Woodland Hills, Calif.) was used to test paw withdrawal latency (PWL) (Hargreaves et al. (1988) Pain 32:77-88; herein incorporated by reference in its entirety). The analgesia meter used a test unit containing a heat source that radiated a light beam. An angled mirror on the test unit was used to locate the correct target on the paw. The meter was set with an active intensity of 40%, an idle intensity of 10%, and a cut-off time for the heat source of 15 seconds. The time to paw withdrawal from the heat stimulus comprised the PWL measure (reaction time was measured to 0.01 s). An acrylic six-chamber container was used to separate the rats that were placed on the glass (Model 400) heated base. In order to decrease the level of variance in PWL measurements, the temperature of the base was set to 30 degrees Celsius five minutes prior to and throughout each round of PWL testing (Ding et al. (1997) Neurosci. Methods 76:183-191; herein incorporated by reference in its entirety).
An investigator blinded to the drug condition carried out the sciatic nerve injections. Each rat was randomly assigned to one of the five drug conditions. The laboratory assistants responsible for drug preparation were blinded to the surgery, neurobehavioral monitoring, and PWL measures. Rats were anesthetized and maintained with 2.5% isoflurane. […] Following the dissection, the sciatic nerve was clearly identified at a point proximal its bifurcation. All rats received unilateral injections of 0.2 ml of drug into the perineural space below the clear fascia covering the nerve and proximal to the bifurcation of the sciatic nerve. Injections were made using a tuberculin syringe and a 30-gauge needle. The time of the injection was recorded and deemed the zero time point. A non-absorbable muscle fascia suture was placed at the midpoint of the injection site as a marker for subsequent nerve removal.

[4] = drug(s) injected perineurally, saline subcutaneously, ropivacaine 0.5%, DEX 20.0 μg/kg, p<0.05

Cc1cccc([C@H](C)c2cnc[nH]2)c1C [dexmedetomidine, Dexmedetomidine]
sensory blockade of the operative paw ([1]; DEX 20.0 μg/kg alone, perineural): brief, partial sensory blockade | inter-paw differential (IPD), relative effect ([1]; DEX 20.0 μg/kg alone, perineural, significantly different at 30 and 60 minutes (p=0.006 and 0.002)): greater than subcutaneous dexmedetomidine alone | time points with significant differences between the operative and control paws (PWL) ([1]; DEX 20.0 μg/kg injected subcutaneously, perineural 0.5% ropivacaine or saline): affected both paws equally | time points with significant differences between the operative and control paws (PWL) [1, 4]: 60 min | neurotoxicity [2]: no neurotoxicity

CCCN1CCCC[C@H]1C(=O)Nc1c(C)cccc1C [Ropivacaine, ropivacaine]
Mean PWL values, 90 min ([3]; 90 min after 0.2 ml perineural sciatic injection): 13.25 s | Mean PWL values, 120 min ([3]; 120 min after 0.2 ml perineural sciatic injection): 6.13 s | Mean PWL values, 150 min ([3]; 150 min after 0.2 ml perineural sciatic injection): 4.74 s | Mean PWL values, 180 min ([3]; 180 min after 0.2 ml perineural sciatic injection): 5.35 s | Mean PWL values, 210 min ([3]; 210 min after 0.2 ml perineural sciatic injection): 5.05 s | PWL scores of the operative paws, 30-90 min time points ([1]; dense blockade, cutoff threshold 15 s, ropivacaine 0.5%, DEX 20.0 μg/kg): ~15 s | time points with significant differences between the operative and control paws (PWL) [1, 4]: 30 to 90 min
